Drawing on US7041687B2, “Indazole compounds useful as protein kinase inhibitors” (Vertex Pharmaceuticals Incorporated, priority 2002, dated 2006), this text covers Ki for eleven compounds.

Molecules are shown by their SMILES.

Assay type in all cases: biochemical
For one assay, the target named is T1, PDK-1 (Homo sapiens, UniProt O15530).
T1 sequence (O15530 1-556): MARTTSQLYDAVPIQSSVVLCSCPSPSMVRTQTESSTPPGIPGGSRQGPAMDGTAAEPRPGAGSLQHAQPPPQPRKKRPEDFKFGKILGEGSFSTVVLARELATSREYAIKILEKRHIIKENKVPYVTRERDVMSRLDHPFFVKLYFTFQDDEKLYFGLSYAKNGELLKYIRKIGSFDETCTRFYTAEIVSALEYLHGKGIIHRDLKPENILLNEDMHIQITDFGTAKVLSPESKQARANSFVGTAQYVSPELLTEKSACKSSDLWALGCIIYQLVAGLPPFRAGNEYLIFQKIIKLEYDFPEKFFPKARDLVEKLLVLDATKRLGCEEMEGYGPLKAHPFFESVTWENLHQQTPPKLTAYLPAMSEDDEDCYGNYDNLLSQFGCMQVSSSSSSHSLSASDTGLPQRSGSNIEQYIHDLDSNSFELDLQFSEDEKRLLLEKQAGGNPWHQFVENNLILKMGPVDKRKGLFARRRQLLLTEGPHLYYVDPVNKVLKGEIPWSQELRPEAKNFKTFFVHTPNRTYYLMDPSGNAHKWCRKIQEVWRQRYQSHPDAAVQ
Nature of the assay: PDK-1 inhibition assay (radioactive-phosphate incorporation). The conditions noted are these: 40 μM ATP, 65 μM PDKtide, 25 nM PDK-1, 30° C.

The target in the next assay is AKT-3 (Homo sapiens, UniProt Q9Y243). As to the kind of experiment: AKT-3 inhibition assay (standard coupled enzyme assay). The settings on record: 170 μM ATP, 200 μM peptide, 45 nM AKT, 30° C.
A further assay concerns the target PKA (Homo sapiens, UniProt P17612). Nature of the assay: PKA inhibition assay (standard coupled enzyme assay). The settings on record: 50 μM ATP, 80 μM Kemptide, 18 nM PKA, 30° C. The procedure, abridged:
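Coupled PK/LDH assay (NADH read) with 18 nM PKA, 50 μM ATP and 80 μM Kemptide in 100 mM HEPES 7.5, 10 mM MgCl2, 3% DMSO at 30 °C. Compound dilutions (typically from 5 μM final) preincubated 10 min before ATP start; initial rates over 15 min gave IC50 and Ki by non-linear regression.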

AKT-3, sequence (Q9Y243 whole entry): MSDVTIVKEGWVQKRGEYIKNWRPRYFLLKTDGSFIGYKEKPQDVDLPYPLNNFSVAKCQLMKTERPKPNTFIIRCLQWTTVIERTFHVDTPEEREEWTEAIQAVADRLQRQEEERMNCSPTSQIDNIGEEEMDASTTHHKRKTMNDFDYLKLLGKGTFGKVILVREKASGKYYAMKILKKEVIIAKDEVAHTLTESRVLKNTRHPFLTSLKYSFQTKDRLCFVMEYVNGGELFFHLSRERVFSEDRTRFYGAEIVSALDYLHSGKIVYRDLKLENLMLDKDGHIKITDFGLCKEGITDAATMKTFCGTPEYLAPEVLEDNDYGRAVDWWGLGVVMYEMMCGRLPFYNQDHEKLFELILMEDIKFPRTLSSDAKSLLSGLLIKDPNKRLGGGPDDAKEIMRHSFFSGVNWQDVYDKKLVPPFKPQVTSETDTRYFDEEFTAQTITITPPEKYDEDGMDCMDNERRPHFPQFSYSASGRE
Procedure for PDK-1: Compounds were screened for their ability to inhibit PDK-1 using a radioactive-phosphate incorporation assay (Pitt and Lee, J. Biomol. Screen., (1996) 1, 47). Assays were carried out in a mixture of 100 mM HEPES (pH 7.5), 10 mM MgCl2, 25 mM NaCl, 2 mM DTT. Final substrate concentrations in the assay were 40 μM ATP (Sigma Chemicals) and 65 μM peptide (PDKtide, Upstate, Lake Placid, N.Y.). Assays were carried out at 30° C. and 25 nM PDK-1 in the presence of ˜27.5 nCi/μL of [γ-^32P]ATP (Amersham Pharmacia Biotech, Amersham, UK). An assay stock buffer solution was prepared containing all of the reagents listed above, with the exception of ATP, and the test compound of interest. 15 μl of the stock solution was placed in a 96 well plate followed by addition of 1 μl of 0.5 mM DMSO stock containing the test compound (final compound concentration 25 μM, final DMSO concentration 5%). The plate was preincubated for about 10 minutes at 30° C. and the reaction initiated by addition of 4 μl ATP (final concentration 40 μM).
The reaction was stopped after 10 minutes by the addition of 100 μL 100 mM phosphoric acid, 0.01% Tween-20. A phosphocellulose 96 well plate (Millipore, Cat no. MAPHNOB50) was pretreated with 100 μL 100 mM phosphoric acid, 0.01% Tween-20 prior to the addition of the reaction mixture (100 μL). The spots were left to soak for at least 5 minutes, prior to wash steps (4×200 μL 100 mM phosphoric acid, 0.01% Tween-20). Alter drying, 20 μL Optiphase ‘SuperMix’ liquid scintillation cocktail (Perkin Elmer) was added to the well prior to scintillation counting (1450 Microbeta Liquid Scintillation Counter, Wallac).

Take `COc1cccc(C(=O)Nc2n[nH]c3ccc(NC(=O)C(CCN)c4ccc(Cl)c(Cl)c4)cc23)c1` (stereo not drawn) [Compound I-167]: the Ki on PDK-1, on AKT-3 and at PKA was below 1 µM each time.

Consider `NCCC(C(=O)Nc1ccc2[nH]nc(N)c2c1)c1ccc(Cl)c(Cl)c1` (stereo not drawn) [Compound I-138], for which the Ki on PDK-1, at AKT-3 and at PKA was below 1 µM in each case.

Take `NCCC(C(=O)Nc1ccc2[nH]nc(NC(=O)c3ccc(Cl)cc3)c2c1)c1ccc(Cl)c(Cl)c1` (stereo not drawn) [Compound I-182]: the Ki at PDK-1, on AKT-3 and on PKA was below 1 µM each time.

On to `NCCC(C(=O)Nc1cc(Br)c2[nH]nc(Cl)c2c1)c1ccc(Cl)c(Cl)c1` (stereo not drawn) [Compound I-145], for which the Ki at PDK-1 is above 3 µM; at AKT-3, below 1 µM; at PKA it was below 1 µM.

With `Cc1n[nH]c2ccc(NC(=O)C(CCN)c3ccc(Cl)c(Cl)c3)cc12` (stereo not drawn) [Compound I-117], the Ki at PDK-1, on AKT-3 and at PKA was below 1 µM in each case.

Turning to `NC(C(=O)Nc1ccc2[nH]ncc2c1)c1ccc(Cl)c(Cl)c1` (stereo not drawn) [Compound I-54], the results for the Ki on PDK-1, at AKT-3 and on PKA were above 3 µM, 1 to 10 µM and below 1 µM, respectively.

For the compound `COc1c(C(CCN)C(=O)Nc2ccc3[nH]nc(C)c3c2)ccc(Cl)c1Cl` (stereo not drawn) [Compound I-130], the Ki on PDK-1, at AKT-3 and at PKA was below 1 µM each time.

Consider `Cc1n[nH]c2ccc(NC(=O)C(CCN)c3cccc(Cl)n3)cc12` (stereo not drawn) [Compound I-129], for which the Ki on PDK-1 was 1 to 3 µM; at AKT-3, below 1 µM; on PKA it was below 1 µM.

As for `CCOc1cccc(C(=O)Nc2n[nH]c3ccc(NC(=O)C(CCN)c4ccc(Cl)c(Cl)c4)cc23)c1` (stereo not drawn) [Compound I-181], the Ki on PDK-1, on AKT-3 and at PKA was below 1 µM in each case.

For `NCCC(C(=O)Nc1ccc2[nH]nc(-c3ccccc3)c2c1)c1ccc(Cl)c(Cl)c1` (stereo not drawn) [Compound I-119], the Ki on PDK-1, at AKT-3 and at PKA was below 1 µM each time.

In the case of `NCCC(C(=O)Nc1ccc2[nH]nc(NC(=O)c3cccc(F)c3)c2c1)c1ccc(Cl)c(Cl)c1` (stereo not drawn) [Compound I-179], the Ki at PDK-1, at AKT-3 and on PKA was below 1 µM each time.
